Reference: patent US4927835A, “Acylphenol derivatives, useful as anti-inflammatory agents and pain suppressants” (priority 1988, dated 1990)
Like-named read-outs stand apart in the source and are kept apart here.

Assays:
[1] = Inhibitory action to carrageenin edema (right hind paw); format: in vivo, male rats (SD strain); details: for ED30: read-out: (1) ED30, carrageenin edema
Method: Seven male rats (SD strain; 6 weeks of age) were used in a group. The test compound was administered per os and, after one hour, 0.1 ml of 0.5% λ-carrageenin solution was injected subcutaneously into the right hind paw. After three hours, the volume of the right hind paw was measured with a plethysmometer (UGO-BASILE). The degree of swelling was calculated by subtracting the volume before the carrageenin from the post injection volume.

[2] = Inhibitory action to acetic acid writhing; format: in vivo, male mice (ddY strain); details: for ED50: po, read-out: (2) ED50, acetic acid writhing
Method: Six male mice (ddY strain; five weeks of age) were used in a group. The test compound was administered per os and, after one hour, 0.6% acetic acid was intraperitoneally injected at the dose of 0.1 ml/10 g and the total writhings within 20 minutes thereafter were counted. By comparing the number of writhings of the drug-treated group to that of the control group, the inhibitory rate was obtained and an ED50 value was calculated.

[3] = Inhibitory action to pain by heat stimulation (tail flick); format: in vivo, male mice (ddY strain); details: mouse, per os; for ED50: po, tail flick at 5, 15, 30, 45 and 60 minutes, read-out: (3) ED50, pain by heat stimulation
Method: Ten male mice (ddY strain; five weeks of age) were used in a group. Radiated heat (250 watts; 4 cm distance from the heat source) was applied to the end of the tail of the mice. […] The test compound was administered per os and the time of appearance of the tail flick after 5, 15, 30, 45 and 60 minutes was measured. […] The maximum positive rate among the analgesically positive rates in each measuring time was defined as the analgesically positive rate at that dose and an ED50 value was calculated therefrom.

[4] = Stomach disorder (ulcer generation); parameters: species or system male rats (SD strain); details: rat, in vivo, po; for selectivity ratio: ratio UD50/ED50, read-out: Safety Region (UD50 /ED50)
Method: Ten male rats (SD strain; five weeks of age) were used in a group. The test compound dissolved or suspended in physiological saline solution was administered to them per os. The animals were than fasted for 17 hours, and 0.5 ml of 5% pontamine sky blue solution was injected intravenously and, after 10 minutes, they were sacrificed with ether. The stomach was removed from the animals, and about 8 ml of 5% formaline solution was injected into the stomach to provide a semifixing. The presence of the […] was checked using a stereoscopic microscope. Rats in which even one ulcer was observed was judged to be positive in ulcer generation and a UD50 value was calculated by a provit method.

[5] = values given in literature; cited from earlier work
Acute toxicity = assay: Acute toxicity; parameters: species or system male rats (SD strain); details: in vivo, po; rat, per os; 7 days; provit method; read-out: (5) LD50, acute toxicity
Method: Test data showing the activity and superiority for compounds representative of those of the present invention is set forth below. In the tests, a representative compound of the present invention, namely 3-(1,1-Dimethylethyl)-4-hydroxy-5-[N-(2-hydroxyethyl)-N-methylaminomethyl]phenyl-2-thienyl ketone, the compound described in Example 4 (the "test compound"), was dissolved or suspended in 0.5% methylcellulose (MC) and administered as described.
Four male rats (SD strain; six weeks of age) were used in a group. The test compound was given per os and, after 7 days, the […] were monitored for life and an LD50 value was calculated by a provit method.

[6] = Analgesic, anti-inflammatory and anti-pyretic activity, summary statement; format: in vivo; details: from the data in Table 1
[7] = Agents and Actions, vol. 12, page 5, 1982; cited from earlier work
[8] = rat, per os, carrageenin 1 hour after compound, paw volume after three hours
[9] = mouse, per os, 0.6% acetic acid i.p. after one hour, writhings within 20 minutes

Row | Structure (SMILES) | ED30 [1, 8] [mg/kg] | ED50 [2, 9] [mg/kg] | ED50 [3] [mg/kg] | TD50 [4] [mg/kg] | selectivity ratio [4] | (5) LD50, acute toxicity [5] [mg/kg] | inhibitory action to carrageenin edema, in words ([1]; rat, per os) | analgesic activity, inflammatory pain (acetic acid writhing), compared with codeine ([2]; mouse, per os) | analgesic activity, non-inflammatory pain (heat stimulation), compared with codeine [3] | LD50 at 168 h (Acute toxicity) [mg/kg] | analgesic and anti-inflammatory activity, in words [6] | (3) action on pain by heat stimulation (no ED50) ([3]; at 500 mg/kg) | inhibitory action against carrageenin-induced edema, in words [7] | ED30 ([1]; Rattus norvegicus) [mg/kg] | ED50 ([2]; Mus musculus) [mg/kg] | (3) action on pain by heat stimulation (no ED50) ([3]; at 20 mg/kg) | TD50 ([4]; per os, fasted 17 hours, provit method, read-out: (4) UD50, stomach ulcer generation) [mg/kg]
1 | O=C(Cn1c(=O)sc2ccc(Cl)cc21)N1CCN(CCO)CC1 [Thiaramide] | 112 | 27.3 | 108 | 278 | 2.5 | 4700 | – | – | – | – | – | – | – | – | – | – | –
2 | CN(CCO)Cc1cc(C(=O)c2cccs2)cc(C(C)(C)C)c1O [Example 4, 3-(1,1-Dimethylethyl)-4-hydroxy-5-[N-(2-hydroxyethyl)-N-methylaminomethyl]phenyl 2-thienyl ketone] | 9.8 | 16.4 | 47 | 146 | 14.9 | – | inhibitory action to carrageenin edema | analgesic activity as strong as codeine | analgesic activity as strong as codeine | 1000 | strong analgesic and anti-inflammatory activity | – | – | – | – | – | –
3 | CC(C)(C)c1cc(C(=O)c2cccs2)cc(C(C)(C)C)c1O [Example R-830, 3,5-di-tert-butyl-4-hydroxy-phenyl 2-thienyl ketone] | 5.6 | 22.4 | – | 11.8 | 2.1 | 1625 | – | – | – | – | – | no action at 500 mg/kg | inhibitory action against carrageenin-induced edema | – | – | – | –
4 | COc1ccc2c(c1)c(CC(=O)O)c(C)n2C(=O)c1ccc(Cl)cc1 [Indomethacin] | – | – | – | – | 3 | – | – | – | – | – | – | – | – | 0.8 | 2.1 | no action at 20 mg/kg | 2.4
